The results in this text go back to US20070031507A1, “Bactericide for MRSA” (priority 2001, published 2007).

Each structure is given as a SMILES string.

This experiment concerns MRSA (methicillin resistant Staphylococcus aureus). The experiment is described as follows: Antibacterial test: survival ratio of MRSA versus cultivation time in medium. The class given is cell-based. The conditions noted are these: physiological saline, dilution 10^-3, pH 12.7. On the procedure: Antibacterial tests were then performed. The relation between the cultivation time (minute) of MRSA in a cultivation medium and the survival ratio (%) of the bacteria was measured in the test shown in Table 1. The cultivation media of MRSA were physiological saline ([…]), physiological saline containing the bactericide for MRSA of the invention ([…]) and physiological saline containing a reagent NaOH (medium 3). The degree of dilution of both the bactericide for MRSA and the reagent (NaOH) was 10^−3, and pH of both solutions was 12.7.

`[Na+].[OH-]` [Medium 3, NaOH]: the “survival ratio of the bacteria” value was 100% (cultivation time 0 minutes), “Measurement was impossible” (cultivation time 15 minutes) and 0.0057% (cultivation time 30 minutes).
